Literature values as cited in patent publication US12324860B2, “Methods of treating central nervous system disorders via administration of nanoparticles of an mTOR inhibitor and an albumin” (Abraxis BioScience, LLC, priority 2018, dated 2025).
Read-outs that look alike come from different tables or passages of the source. Blank lines part the entries; values can stand above or below the compound they belong to.

How the values were obtained:
[1] = in vivo
[2] = tested on: ABCB1/ABCG2
[3] = preclinical studies
[4] = retrospective analysis (Lorgis et al. 2012)

Compound: COc1ccc(COc2cc3oc(=O)c4cc(C(C)O)ccc4c3cc2OC)cc1 (stereo not shown) [Palomid 529]
- brain penetration [1]: good brain penetration
- affinity for ABCB1/ABCG2 [2]: lacks affinity

- brain penetration [3]: poor brain penetration
Compound: CO[C@H]1C[C@@H]2CC[C@@H](C)[C@@](O)(O2)C(=O)C(=O)N2CCCC[C@H]2C(=O)O[C@H]([C@H](C)C[C@@H]2CC[C@@H](OCCO)[C@H](OC)C2)CC(=O)[C@H](C)/C=C(\C)[C@@H](O)[C@@H](OC)C(=O)[C@H](C)C[C@H](C)/C=C/C=C/C=C/1C [everolimus]

Compound: bevacizumab: recombinant humanized anti-VEGF antibody
- PFS and OS with low dose intensity (<5 mg/kg/week) versus normal dose intensity at 10 mg/kg [4]: improved PFS and OS
